This passage reports IC50 results from the Kinase Knowledgebase extract (Sharma et al. 2016).

For orientation: IC50 means the concentration that gives 50% inhibition. Low values mean greater potency, high ones weaker potency.

Chain of PIK3CA (human) (P42336 whole entry, looked up): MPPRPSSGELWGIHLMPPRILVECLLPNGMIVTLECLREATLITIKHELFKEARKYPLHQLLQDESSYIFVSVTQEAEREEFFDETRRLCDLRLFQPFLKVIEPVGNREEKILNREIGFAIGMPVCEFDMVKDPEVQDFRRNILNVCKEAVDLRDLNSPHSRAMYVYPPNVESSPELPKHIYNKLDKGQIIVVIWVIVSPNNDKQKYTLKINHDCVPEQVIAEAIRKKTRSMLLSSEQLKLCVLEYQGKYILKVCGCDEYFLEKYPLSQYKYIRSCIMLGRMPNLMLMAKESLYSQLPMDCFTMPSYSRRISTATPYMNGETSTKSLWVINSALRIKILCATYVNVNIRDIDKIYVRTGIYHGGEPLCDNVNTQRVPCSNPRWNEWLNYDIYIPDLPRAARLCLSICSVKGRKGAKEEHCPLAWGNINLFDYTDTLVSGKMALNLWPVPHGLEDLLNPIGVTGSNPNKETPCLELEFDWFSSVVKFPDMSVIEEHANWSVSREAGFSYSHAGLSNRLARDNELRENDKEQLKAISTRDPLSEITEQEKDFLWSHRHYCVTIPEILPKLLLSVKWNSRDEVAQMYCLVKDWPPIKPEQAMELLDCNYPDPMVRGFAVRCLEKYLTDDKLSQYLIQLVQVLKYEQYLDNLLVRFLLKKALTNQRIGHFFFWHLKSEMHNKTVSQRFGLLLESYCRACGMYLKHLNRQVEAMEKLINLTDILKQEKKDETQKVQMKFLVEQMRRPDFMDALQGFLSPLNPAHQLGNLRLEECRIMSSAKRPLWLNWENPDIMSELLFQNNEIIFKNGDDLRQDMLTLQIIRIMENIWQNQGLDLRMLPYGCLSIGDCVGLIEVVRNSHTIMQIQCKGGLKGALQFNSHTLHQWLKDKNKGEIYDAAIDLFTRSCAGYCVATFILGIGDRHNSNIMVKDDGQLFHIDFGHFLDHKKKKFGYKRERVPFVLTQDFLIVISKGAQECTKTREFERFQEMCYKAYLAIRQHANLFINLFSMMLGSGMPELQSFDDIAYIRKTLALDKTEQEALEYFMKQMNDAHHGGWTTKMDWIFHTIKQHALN

This test has as its target PIK3CA (human) (UniProt P42336). Description: Cell-Based Assay. The settings on record: bt474.
With `CN(C)CCCOc1ccc(-c2cc3c(cc2F)ncc2c3n([C@@H]3CCCOC3)c(=O)n2C)cn1`, the IC50 was 10 µM.
Next, `Cn1c(=O)n(C2CCOCC2)c2c3cc(-c4ccc(OCCCN5CCCCC5)nc4)c(F)cc3ncc21`: over 16.7 µM; `CN(C)CCCOc1ccc(-c2cc3c(cc2F)ncc2c3n([C@H]3CCCOC3)c(=O)n2C)cn1`: over 20.2 µM.
Next, `Cn1c(=O)n([C@H]2CCCOC2)c2c3cc(-c4ccc(OCCCN5CCCCC5)nc4)ccc3ncc21`: over 10.9 µM; `Cn1c(=O)n([C@H]2CCCOC2)c2c3cc(-c4ccc(OCCCN5CCC5)nc4)ccc3ncc21`: 0.499 µM; `Cn1c(=O)n(C2COC2)c2c3cc(-c4ccc(OCCCN5CCCCC5)nc4)ccc3ncc21`: over 26.3 µM.
Next, `Cn1c(=O)n([C@H]2CCCOC2)c2c3cc(-c4ccc(OCCCN5CCCC5)nc4F)ccc3ncc21`: over 16.2 µM; `CO[C@H]1C[C@@H](n2c(=O)n(C)c3cnc4cc(F)c(-c5ccc(OCCCN6CCCC6)nc5)cc4c32)C1`: over 29.8 µM; `CN(C)CCCOc1ccc(-c2cc3c(cc2F)ncc2c3n(C3COC3)c(=O)n2C)cn1`: over 29.1 µM.
Consider `Cn1c(=O)n(C2CCC2)c2c3cc(-c4ccc(OCCCN5CCCCC5)nc4)ccc3ncc21`, for which the half-inhibitory concentration (IC50) is over 14.3 µM.
Next, `CN(C)CCCOc1ccc(-c2ccc3ncc4c(c3c2)n([C@H]2C[C@@H](O)C2)c(=O)n4C)cn1`: 1.08 µM.
`CO[C@H]1C[C@@H](n2c(=O)n(C)c3cnc4cc(F)c(-c5ccc(OCCCN(C)C)nc5)cc4c32)C1`: the IC50 is over 30 µM.
Next, `Cn1c(=O)n([C@H]2CCCOC2)c2c3cc(-c4ccc(OCCCN5CCCC5)nc4)c(F)cc3ncc21`: over 30 µM; `CO[C@H]1C[C@@H](n2c(=O)n(C)c3cnc4cc(F)c(-c5ccc(OCCCN(C)C)nc5F)cc4c32)C1`: over 28 µM.
Next, `Cn1c(=O)n([C@H]2CCCOC2)c2c3cc(-c4ccc(OCCCN5CCCCC5)nc4)c(F)cc3ncc21`: over 23.5 µM; `CN(C)CCCOc1ccc(-c2ccc3ncc4c(c3c2)n(C2COC2)c(=O)n4C)cn1`: 6.84 µM; `Cn1c(=O)n(C2CCC2)c2c3cc(-c4ccc(OCCCN5CCCC5)nc4)ccc3ncc21`: over 9.56 µM.
Next, `CN(C)CCCOc1ccc(-c2cc3c(cc2F)ncc2c3n([C@H]3CCCOC3)c(=O)n2C)c(F)n1`: over 9.4 µM.
For the compound `O=c1[nH]c2cnc3ccc(-c4ccc(OCCCN5CCCCC5)nc4)cc3c2n1C1CCOCC1`, the IC50 is over 25 µM.
